According to article PMC11480411, “Mucosal sugars delineate pyrazine vs pyrazinone autoinducer signaling in Klebsiella oxytoca” (Nature Communications, 2024):
Where “and” joins values, the source holds several entries; their conditions need not be identical. Identical values can stand only once.

Columns and labels:
HRH2 = target: T1, HRH2 (Homo sapiens, UniProt P25021); test: PRESTO-Tango GPCR screen and dose-response; format: cell-based; conditions: for GPCR activation (heatmap value): HRH2, 100 µM; for HRH2 dose-response raw reporter signal (Fig. 5b source data): replicate wells
T1 construct: expressed in transfected cells; host or cells: HTLA cells (HEK293 line stably expressing β-arrestin-TEV and tTA-Luciferase)
Procedure, shortened: (§1)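 Each receptor was expressed from a Tango plasmid in HTLA cells, which stably carry β-arrestin-TEV and a tTA-driven luciferase reporter. Single-point screening used 100 μM final compound for 20 h, and the signal was normalised to PBS control. Concentration-response testing spanned 10^−4 to 10^−15 M.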

HRH3 = target: T2, HRH3 (Homo sapiens, UniProt Q9Y5N1); test: PRESTO-Tango GPCR screen and dose-response; format: cell-based; conditions: for GPCR activation (heatmap value): HRH3, 100 µM; for HRH3 dose-response raw reporter signal (Fig. 5b source data): replicate wells
T2 construct: expressed in transfected cells; host or cells: HTLA cells (HEK293 line stably expressing β-arrestin-TEV and tTA-Luciferase)
Procedure, shortened: as §1

∆pyr K. oxytoca = test: RNA-seq of compound-supplemented ∆pyr K. oxytoca; format: cell-based, Klebsiella oxytoca ATCC 8724; conditions: 10 µM
Method: A ∆pyr K. oxytoca glycerol stock was streaked onto an LB-Agar plate supplemented with spectinomycin (50 µg/mL) and incubated aerobically at 30°C for 24 h in a stationary incubator. Single colonies were grown for 24 h aerobically in 5 mL of M9 minimal medium supplemented with 5 g/L casamino acids and 0.4% D-galactose at 30 °C and 250 rpm. Each ∆pyr K. oxytoca overnight culture was diluted 1:1000 into fresh medium (5 mL) and incubated aerobically at 30 °C and 250 rpm to mid-exponential growth (OD600 = 0.8). These conditions abrogated both detectable pyrazine and pyrazinone production. At this point, 10 µM of compound in DMSO, were added to the cultures; an equal volume of DMSO was added to cultures without compound as a solvent vehicle control. The cultures were incubated under aerobic conditions with the compounds for one hour at 30 °C and at 250 rpm. After incubation, the cultures were centrifuged, the supernatants were decanted, and the cell pellets were quickly resuspended in 5 mL of Bacterial RNAProtect (Qiagen). The samples were centrifuged again, and the pellets were frozen on dry ice and stored at −80 °C until RNA extraction. The processed cell pellets were thawed on ice and resuspended in 200 µL of lysis buffer (10 mM Tris, 1 mM EDTA, 5 mg/mL lysozyme, 12.5 µg/mL proteinase K [pH 8.0]) and incubated at room temperature for 10 min. The RNA was extracted via the Qiagen RNeasy Mini kit, treated with TURBO DNase in a total volume of 100 µL at room temperature for 30 min, and extracted again using an RNeasy Mini kit. RNA-seq analysis was conducted by the Yale Center for Genome Analysis. Sequences were aligned to the K. oxytoca ATCC 8724 genome (NC_016612.1). Differential expression analysis was performed through DESeq2 and pathway enrichment analysis was performed through the Funage-Pro web-based platform.

T2 sequence (Q9Y5N1 whole entry): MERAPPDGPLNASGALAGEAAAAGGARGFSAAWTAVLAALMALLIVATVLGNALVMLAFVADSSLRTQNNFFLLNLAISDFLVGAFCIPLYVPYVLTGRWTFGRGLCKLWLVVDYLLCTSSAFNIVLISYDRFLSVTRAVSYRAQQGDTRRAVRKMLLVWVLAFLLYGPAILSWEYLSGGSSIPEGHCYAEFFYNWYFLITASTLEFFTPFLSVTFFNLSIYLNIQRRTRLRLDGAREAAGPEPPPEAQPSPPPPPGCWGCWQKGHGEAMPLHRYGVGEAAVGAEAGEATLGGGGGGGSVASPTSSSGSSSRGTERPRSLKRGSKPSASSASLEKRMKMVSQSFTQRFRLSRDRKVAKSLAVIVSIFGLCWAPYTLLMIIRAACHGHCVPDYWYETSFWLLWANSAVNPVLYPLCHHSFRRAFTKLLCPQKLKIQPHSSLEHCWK
T1 sequence (P25021 whole entry): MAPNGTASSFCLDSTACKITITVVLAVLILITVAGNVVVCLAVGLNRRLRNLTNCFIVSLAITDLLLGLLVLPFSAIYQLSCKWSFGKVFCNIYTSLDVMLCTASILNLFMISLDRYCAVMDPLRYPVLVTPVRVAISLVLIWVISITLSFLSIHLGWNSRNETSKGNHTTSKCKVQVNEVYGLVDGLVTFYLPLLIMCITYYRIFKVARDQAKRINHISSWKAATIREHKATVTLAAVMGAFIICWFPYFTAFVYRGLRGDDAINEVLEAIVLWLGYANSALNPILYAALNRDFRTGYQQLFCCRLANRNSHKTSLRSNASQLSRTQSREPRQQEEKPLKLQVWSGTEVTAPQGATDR

Compound	GPCR activation (heatmap value) (HRH2)	HRH2 dose-response raw reporter signal (Fig. 5b source data) (HRH2; Log(10)Conc (M) -4)	HRH2 dose-response raw reporter signal (Fig. 5b source data) (HRH2; Log(10)Conc (M) -5)	HRH2 dose-response raw reporter signal (Fig. 5b source data) (HRH2; Log(10)Conc (M) -6)	HRH2 dose-response raw reporter signal (Fig. 5b source data) (HRH2; Log(10)Conc (M) -7)	HRH2 dose-response raw reporter signal (Fig. 5b source data) (HRH2; Log(10)Conc (M) -8)	HRH2 dose-response raw reporter signal (Fig. 5b source data) (HRH2; Log(10)Conc (M) -9)	HRH2 dose-response raw reporter signal (Fig. 5b source data) (HRH2; Log(10)Conc (M) -10)	HRH2 dose-response raw reporter signal (Fig. 5b source data) (HRH2; Log(10)Conc (M) -11)	HRH2 dose-response raw reporter signal (Fig. 5b source data) (HRH2; Log(10)Conc (M) -12)	HRH2 dose-response raw reporter signal (Fig. 5b source data) (HRH2; Log(10)Conc (M) -13)	HRH2 dose-response raw reporter signal (Fig. 5b source data) (HRH2; Log(10)Conc (M) -14)	HRH2 dose-response raw reporter signal (Fig. 5b source data) (HRH2; Log(10)Conc (M) -15)	GPCR activation (heatmap value) (HRH3)	HRH3 dose-response raw reporter signal (Fig. 5b source data) (HRH3; Log(10)Conc (M) -4)	HRH3 dose-response raw reporter signal (Fig. 5b source data) (HRH3; Log(10)Conc (M) -5)	HRH3 dose-response raw reporter signal (Fig. 5b source data) (HRH3; Log(10)Conc (M) -6)	HRH3 dose-response raw reporter signal (Fig. 5b source data) (HRH3; Log(10)Conc (M) -7)	HRH3 dose-response raw reporter signal (Fig. 5b source data) (HRH3; Log(10)Conc (M) -8)	HRH3 dose-response raw reporter signal (Fig. 5b source data) (HRH3; Log(10)Conc (M) -9)	further results
CC(C)Cc1ncc(CCCCNC(=N)N)[nH]c1=O [3-Homo]	0.6697	77 and 94 and 47	50 and 38 and 83	68 and 53 and 83	59 and 65 and 91	56 and 50 and 59	44 (2×) and 59	53 and 62 (2×)	29 and 53 and 74	50 and 65 and 53	53 and 27 and 91	41 and 77 and 68	47 and 29 and 100	-0.5013	262 and 192 and 404	245 and 283 and 383	192 and 292 and 463	286 and 312 and 310	174 and 312 and 371	227 and 248 and 307	HRH3 dose-response raw reporter signal (Fig. 5b source data) (HRH3; Log(10)Conc (M) -10): 124 and 254 and 251; HRH3 dose-response raw reporter signal (Fig. 5b source data) (HRH3; Log(10)Conc (M) -11): 177 and 189 and 218; HRH3 dose-response raw reporter signal (Fig. 5b source data) (HRH3; Log(10)Conc (M) -12): 112 and 153 and 198; HRH3 dose-response raw reporter signal (Fig. 5b source data) (HRH3; Log(10)Conc (M) -13): 130 and 206 and 248; HRH3 dose-response raw reporter signal (Fig. 5b source data) (HRH3; Log(10)Conc (M) -14): 97 and 162 and 233; HRH3 dose-response raw reporter signal (Fig. 5b source data) (HRH3; Log(10)Conc (M) -15): 150 and 124 (2×)
CC(C)Cc1ncc(CCCNC(=N)N)[nH]c1=O [compound 3]	-0.4047	18 and 44 and 35	83 and 74 and 44	38 (2×) and 44	91 and 59 and 47	50 (2×) and 41	44 and 41 and 71	53 and 47 and 59	56 (2×) and 44	41 (2×) and 27	29 and 47 and 56	106 and 71 and 50	100 and 35 and 29	-0.154	248 and 233 and 159	121 and 136 and 127	224 and 147 and 106	127 and 100 and 124	165 and 200 and 159	144 and 133 and 142	number of differentially regulated genes (∆pyr K. oxytoca; one hour, vs DMSO, Padj < 0.05, abs(log2FC) > 1): 561 genes; effect on enterobactin BGC transcription (∆pyr K. oxytoca; vs DMSO control, RNA-seq): significantly enhanced transcription of the enterobactin BGC; KEGG pathway enrichment neglogP: ABC Transporters, upregulated (∆pyr K. oxytoca; Funage-Pro, 3 upreg): 5.638; KEGG pathway enrichment neglogP: Biosynthesis of siderophore group nonribosomal peptides, upregulated (∆pyr K. oxytoca; Funage-Pro, 3 upreg): 9.097; effect on yersiniabactin BGC transcription (∆pyr K. oxytoca; RNA-seq, pyrazinone 3 compared with pyrazine 7): prominently upregulated the yersiniabactin BGC; HRH3 dose-response raw reporter signal (Fig. 5b source data) (HRH3; Log(10)Conc (M) -10): 130 and 100 and 103; HRH3 dose-response raw reporter signal (Fig. 5b source data) (HRH3; Log(10)Conc (M) -11): 156 and 177 and 165; HRH3 dose-response raw reporter signal (Fig. 5b source data) (HRH3; Log(10)Conc (M) -12): 103 and 171 and 100; HRH3 dose-response raw reporter signal (Fig. 5b source data) (HRH3; Log(10)Conc (M) -13): 124 and 189 and 112; HRH3 dose-response raw reporter signal (Fig. 5b source data) (HRH3; Log(10)Conc (M) -14): 115 and 200 and 124; HRH3 dose-response raw reporter signal (Fig. 5b source data) (HRH3; Log(10)Conc (M) -15): 106 and 271 and 127
